From US20150023954A1, “POTENTIATING ANTIBODY-INDUCED COMPLEMENT-MEDIATED CYTOTOXICITY VIA PI3K INHIBITION” (MEMORIAL SLOAN-KETTERING CANCER CENTER, priority 2012, published 2015)
Entries after “also recorded” stand apart in the source; their conditions may differ.

Assays:
[1] = system: tumor cells; experiment: Cell growth experiments with MEK inhibitors and low dose PGNX; type: cell-based; conditions: PGNX less than 0.0001 μg/m; AZD6244 0.1 μM-5.0 μM; data not shown
Description: (§1) WST-1 assay. […] The Student t test was used for statistical analysis.

[2] = system: CHLA136Luc cells; experiment: WST-1 cell growth assay, CHLA136Luc; type: cell-based, human; conditions: for higher mAb dose (plus complement) cytotoxicity / low mAb dose (plus complement) growth acceleration: all inhibitor dose levels, with PGNX, 18 hours
Description: as §1

[3] = system: Colo205Luc cells; experiment: Cell growth assay, Colo205; conditions: for 5B1 cytotoxicity: all inhibitor doses tested, overnight with mAb 5B1 and HuC 5%; for tumor cell (Colo205) growth: high concentration of antibody, better than either inhibitor alone (FIG. 5C, 5D); for PGNX induced tumor cell cytotoxicity: highest PGNX and inhibitor dose tested; for tumor cell growth induced by low dose PGNX and complement: low dose PGNX (e.g., 0.0001 μg/ml), HuC′ 50 μl/ml
Procedure: (§4) WST-1 assay. WST-1 cell proliferation assay kit was used for detection of the extent of cellular proliferation according to the company's manual. Briefly, 20,000 cells in 100 μl of culture media as defined above were plated in a 96 well flat bottom plate and incubated at 37° C. in 5% CO2 overnight. Antibody doses between 0.02 ρg to 5 μg in 1 μl of defined culture media were added to each well and incubated for 1 hour at 37° C., 5% CO2; 4-10 μl of human serum complement (Quidel Corp. San Diego, Calif.) was then added to each well and incubated overnight. For assays testing the impact of PI3K inhibitor, BEZ235 (Chemdea, Ridgewood, N.J.) at 0.005, 0.5 or 5.0 μg/ml were added accordingly at same time when mAb was added. WST-1 agent (Roche Applied Science, Indianapolis Ind.) was added at 1:10 ratio at the end of incubation, and OD (Optical density) was acquired by reading the plates at 415 nm 4 hours later. The Student t test was used for statistical analysis.

[4] = system: CD20; experiment: In vivo experiments targeting CD20 (Rituxan): tumor growth; set-up: species or system SCID mice; conditions: data not shown
Procedure: (§2) mAb administration. Mice were treated with murine mAbs 3F8, PGNX, R24, against GD2, GM2, GD3 and Rituxan against CD20. Control mice, typically 2 cages of 5 mice, were treated identically, receiving the same volume of PBS at the same intervals.

[5] = system: CHLA136Luc, Lan-1-Luc, H524, Hs445, Daudi cells; experiment: In vitro cell growth (WST-1) with mAbs and human complement on selected cell lines (FIG. 3); type: cell-based
Description: as §1

[6] = system: DaudiLuc cells; experiment: WST-1 cell growth assay, DaudiLuc; type: cell-based, human
Description: as §1

[7] = system: Hs445; experiment: WST-1 cell growth assay, Hs445; type: cell-based, human; conditions: low dose, six experiments
Description: as §1

[8] = system: Colo205Luc cells
Procedure: as §4

[9] = system: p-Akt; experiment: Western blot of p-Akt in CHLA136Luc cell extracts; type: cell-based, human; conditions: BEZ235; cells treated with PGNX 0.001 μg/m for 4 hours
Procedure: (§3) Western blot. 1×10^6 Cells were plated into 6 well plates and incubated overnight. Cells were then treated with BEZ235, mAbs and human sera complement at the dose indicated for 4 hours. At the end of incubation, cells were collected and lysed with lysis buffer from Cell Signal (Danvers, Mass.), which contains protease inhibitor cocktail and phosphatase inhibitor cocktail (Calbiochem, Philadelphia, Pa.), each at 1:100 dilution (Cocktails:lysis buffer). The cell lysates were then quantitated using Bradford assay (Bio-Rad, Hercules, Calif.) according to that company's manual: 30 μg of cell lysate protein from each sample were running on 7.5% of Tris-HCL gel (Bio-Rad) and transferred to a PVDF membrane. Membrane was then blocked with Pierce blocking buffer overnight at 4° C., probed with indicated mAbs at 1:1000 dilution overnight at 4° C. and HRP-goat anti-rabbit-IgG antibody at 1:1000 for 1 hour. The membrane was washed with PBS-T (0.1% Tween-20+PBS) 5 minutes on a shaker 5 times after each incubating and then developed using Amersham™ ECL™ Prime Western Blotting Detection Reagent (GE Healthcare, Piscataway, N.J.). Imaging was acquired by scanning the membrane on the FujiFilm LAS-3000 Imager.

[10] = system: p-Akt; experiment: Western blot and immunofluorescent staining of p-Akt in Colo205 cells; type: cell-based
Procedure: as §3

[11] = system: p-PRAS40; experiment: Western blot of p-PRAS40 in CHLA136Luc cell extracts; type: cell-based, human; conditions: BEZ235; cells treated with PGNX 0.001 μg/m for 4 hours
Procedure: as §3

[12] = system: CHLA136Luc cells; experiment: IV CHLA136Luc tumor challenge in SCID mice: survival and tumor growth by luciferase imaging; type: in vivo, CB17 SCID mice
Procedure: Animals. CB17 SCID mice (Taconic) 5-8 weeks old were housed 5 to a cage. The Memorial Sloan Kettering Cancer Center Institutional Animal Care and Use Committee (IACUC) approved all protocols and procedures.
Tumor Challenge. Mice were placed under a heat lamp for 3 minutes and immobilized in a mouse restrainer; 0.5 million CHLA136Luc cells in 100 μl were injected into the tail vein using a BD insulin syringe with 28 gauge needle.
as §2
Imaging. Mice were anaesthetized using isoflurane and injected with 300 μg of D-Luciferin Firefly (Caliper LifeScience, Hopkinton, Mass.). They were imaged 10 minutes later using the IVIS200 in vivo imaging system (Caliper Life Science) over periods of time ranging up to 3 minutes using the software program “Living Image 3.0” (Caliper Life Science). Values are reported as photons/second.
Statistical analysis. Overall survival was defined as the time from IV tumor cell challenge to date of death or day 160. Survival distributions were generated using Kaplan-Meier methodology (Kaplan, “Nonparametric estimation from incomplete observations”, J. Am. Stat. Assoc., 1958, 53:457-81) and comparisons between treatment group and control (PBS) were made via the […] (using Graphpad Prism 5).

[13] = BEZ235 alone, 25 or 12.5 mg/kg by gavage daily for 2 weeks

Question: With CC(=O)Nc1cccc(-n2c(=O)n(C3CC3)c(=O)c3c(Nc4ccc(I)cc4F)n(C)c(=O)c(C)c32)c1 [GSK202011] as the compound, how does the “cytotoxicity of PGNX at sublytic low dosages” value [1] read?
Answer: enhanced

Question: With NC1(c2ccc(-c3nc4ccn5c(=O)[nH]nc5c4cc3-c3ccccc3)cc2)CCC1 [MK2206] as the compound, how does the “higher mAb dose (plus complement) cytotoxicity” value [2] read?
Answer: increased

Question: What about the “low mAb dose (plus complement) growth acceleration” value [2] of the same compound?
Answer: prevented

Question: What about the 5B1 cytotoxicity [3] of the same compound?
Answer: enhanced

Question: And the “tumor cell (Colo205) growth” value [3]?
Answer: inhibited

Question: What about the “PGNX induced tumor cell cytotoxicity” value [3] of the same compound?
Answer: enhanced

Question: What about the “tumor cell growth induced by low dose PGNX and complement” value [3] of the same compound?
Answer: dramatically inhibited

Question: How did the tumor growth ([4]; doses as low as 0.001 mcg) turn out when rituximab [Rituxan] was run?
Answer: slight delay of tumor growth

Question: And the accelerated tumor growth ([4]; doses down to 0.001 mcg)?
Answer: not seen

Question: What about the “tumor growth in vitro” value ([5]; high mAb doses, with complement) of the same compound?
Answer: inhibited tumor growth

Question: And the complement-independent tumor inhibition ([5]; highest mAb doses, absence of complement)?
Answer: detected

Question: What about the “tumor cell growth in vitro” value ([5]; low mAb doses, exclusively in the presence of complement) of the same compound?
Answer: accelerated tumor cell growth

Question: And the cell growth ([6]; low dose, single experiment)?
Answer: significantly accelerated growth

Question: And the “experiments with significantly accelerated growth” value [7]?
Answer: 4

Question: Which “cytotoxicity of PGNX at sublytic low dosages” value [1] does the source give for Cn1cnc2c(F)c(Nc3ccc(Br)cc3Cl)c(C(=O)NOCCO)cc21 [AZD6244] here?
Answer: enhanced

Question: What does the source list for Cn1c(=O)n(-c2ccc(C(C)(C)C#N)cc2)c2c3cc(-c4cnc5ccccc5c4)ccc3ncc21 [BEZ235]?
Answer: cytotoxicity of Colo205luc cells [8]: significantly enhanced; p-Akt expression [9]: inhibited; cell growth in vitro ([6]; BEZ235): decreased; mAb cytotoxicity ([6]; all BEZ235 doses tested, combined with Rituxan at various doses plus complement, vs each treatment alone): significantly enhanced; also recorded: increased; accelerated cell growth induced by low dose mAb ([6]; combined with low-dose Rituxan (0.0001 μg/ml) plus complement): significantly inhibited; also recorded: prevented; p-Akt expression ([10]; BEZ235 1 μM alone): inhibited; also recorded: decreased p-AKT; treatment time giving complete inhibition of p-Akt expression ([10]; BEZ235 at 1 μM): ≥ 2 h; BEZ235 dose giving complete inhibition of p-AKT expression ([10]; cells treated for 4 hrs): ≥ 0.5 µM; effect on proliferation compared to Wortmannin [2]: greater effect; cell growth in vitro ([2]; BEZ235): decreased; mAb cytotoxicity and low-dose growth acceleration ([2]; BEZ235 with mAbs R24 and PGNX (Table 2)): Comparable results; mAb cytotoxicity ([2]; all BEZ235 doses tested, combined with 3F8 at various doses plus complement, vs each treatment alone): significantly enhanced; also recorded: increased; accelerated cell growth induced by low dose mAb ([2]; combined with low-dose 3F8 (0.001 μg/ml) plus complement): significantly inhibited; also recorded: prevented; p-PRAS40 expression [11]: inhibited; CHLA136Luc growth [12, 13]: significantly reduced; survival [12, 13]: prolonged survival; high mAb dose induced growth inhibition ([12]; BEZ235 by gavage with high dose mAb): increased; low dose mAb (PGNX) induced early tumor growth acceleration ([12]; BEZ235 by gavage with low-dose PGNX): eliminated; also recorded: preventing; also recorded: prevented; survival of challenged SCID mice ([12]; BEZ235 with mAbs, compared with high-dose PGNX and 3F8 alone): significantly increasing survival; effect on proliferation compared to Wortmannin [3]: greater effect; accelerated cell growth induced by low dose 5B1 ([3]; 5B1 0.001-0.01 μg/ml (BEZ235), 0.001 μg/ml (Wortmannin)): inhibited

Question: For Nc1cc(C(F)(F)F)c(-c2cc(N3CCOCC3)nc(N3CCOCC3)n2)cn1 [BKM120], which “higher mAb dose (plus complement) cytotoxicity” value [2] is on record?
Answer: increased

Question: What about the “low mAb dose (plus complement) growth acceleration” value [2] of the same compound?
Answer: prevented

Question: What about the 5B1 cytotoxicity [3] of the same compound?
Answer: enhanced

Question: And the “tumor cell (Colo205) growth” value [3]?
Answer: inhibited

Question: And the “PGNX induced tumor cell cytotoxicity” value [3]?
Answer: enhanced

Question: What about the “tumor cell growth induced by low dose PGNX and complement” value [3] of the same compound?
Answer: dramatically inhibited
